Experimental data: the NIST ThermoML archive (doi:10.1021/acs.jced.5b00326)
Values joined by “and” are separate entries in the source; they are usually repeats but may differ in a detail not shown here. Equal entries are not always repeated. Numbers after ± are expanded uncertainties.

Assay: mn = molality of the nth substance listed, in mol/kg
Details: Liquid; for speed of sound: 100 kPa, Sing-around technique in a fixed-path interferometer; for mass density: 101 kPa, Vibrating tube method

CCCCCCn1cc[n+](C)c1.[Cl-] [1-hexyl-3-methylimidazolium chloride] + O
speed of sound, Frequency=3 MHz
Details | 288.15 K | 293.15 K | 298.15 K | 303.15 K | 308.15 K
m1 = 0.01 | 1474.3 ± 20 m/s and 1468.6 ± 20 m/s | 1484.6 ± 20 m/s and 1490.1 ± 20 m/s | 1498.7 ± 20 m/s and 1505 ± 20 m/s | 1511 ± 20 m/s and 1517 ± 20 m/s | 1521.3 ± 20 m/s and 1525.1 ± 20 m/s
m1 = 0.03 | 1474.3 ± 20 m/s | 1490.1 ± 20 m/s | 1505 ± 20 m/s | 1517 ± 20 m/s | 1525.1 ± 20 m/s

mass density [kg/m3]
Details | 288.15 K | 293.15 K | 298.15 K | 303.15 K | 308.15 K
m1 = 0.01 | 999.911 ± 14 | 999.007 ± 14 | 997.841 ± 14 | 996.436 ± 14 | 994.818 ± 14
m1 = 0.03 | 1000.17 ± 14 | 999.246 ± 14 | 998.052 ± 14 | 996.623 ± 14 | 995.004 ± 14

O=P([O-])([O-])O.[K+].[K+] [dipotassium hydrogen phosphate] + O
Details | mass density, 288.15 K [kg/m3] | mass density, 293.15 K [kg/m3] | mass density, 298.15 K [kg/m3] | mass density, 303.15 K [kg/m3] | mass density, 308.15 K [kg/m3] | speed of sound, 288.15 K [m/s] | speed of sound, 293.15 K [m/s] | speed of sound, 298.15 K [m/s] | speed of sound, 303.15 K [m/s] | speed of sound, 308.15 K [m/s]
m1 = 0.01907 | 1001.68 ± 14 | 1000.76 ± 14 | 999.574 ± 14 | 998.164 ± 14 | 996.53 ± 14 | 1466.9 ± 20 | 1484.8 ± 20 | 1499.7 ± 20 | 1514.5 ± 20 | 1522.3 ± 20
m1 = 0.04894 | 1005.7 ± 14 | 1004.75 ± 14 | 1003.53 ± 14 | 1002.09 ± 14 | 1000.43 ± 14 | 1471.1 ± 20 | 1489 ± 20 | 1503.9 ± 20 | 1518.7 ± 20 | 1526.5 ± 20
m1 = 0.06838 | 1008.31 ± 14 | 1007.35 ± 14 | 1006.11 ± 14 | 1004.65 ± 14 | 1002.97 ± 14 | 1473.8 ± 20 | 1491.8 ± 20 | 1506.6 ± 20 | 1521.5 ± 20 | 1529.3 ± 20
m1 = 0.09992 | 1012.56 ± 14 | 1011.57 ± 14 | 1010.29 ± 14 | 1008.79 ± 14 | 1007.09 ± 14 | 1478.3 ± 20 | 1496.2 ± 20 | 1511.1 ± 20 | 1525.9 ± 20 | 1533.7 ± 20
m1 = 0.1992 | 1025.92 ± 14 | 1024.84 ± 14 | 1023.44 ± 14 | 1021.85 ± 14 | 1020.05 ± 14 | 1492.2 ± 20 | 1510.2 ± 20 | 1525 ± 20 | 1539.9 ± 20 | 1547.7 ± 20
m1 = 0.2993 | 1039.39 ± 14 | 1038.23 ± 14 | 1036.7 ± 14 | 1035.01 ± 14 | 1033.13 ± 14 | 1506.3 ± 20 | 1524.2 ± 20 | 1539.1 ± 20 | 1554 ± 20 | 1561.8 ± 20
m1 = 0.3965 | 1052.47 ± 14 | 1051.22 ± 14 | 1049.58 ± 14 | 1047.79 ± 14 | 1045.82 ± 14 | 1520 ± 20 | 1537.9 ± 20 | 1552.8 ± 20 | 1567.6 ± 20 | 1575.4 ± 20
m1 = 0.4942 | 1065.63 ± 14 | 1064.29 ± 14 | 1062.53 ± 14 | 1060.65 ± 14 | 1058.58 ± 14 | 1533.8 ± 20 | 1551.7 ± 20 | 1566.5 ± 20 | 1581.4 ± 20 | 1589.2 ± 20
m1 = 0.6 | 1079.87 ± 14 | 1078.43 ± 14 | 1076.55 ± 14 | 1074.56 ± 14 | 1072.4 ± 14 | 1548.6 ± 20 | 1566.6 ± 20 | 1581.4 ± 20 | 1596.3 ± 20 | 1604.1 ± 20
m1 = 0.6969 | 1092.92 ± 14 | 1091.39 ± 14 | 1089.39 ± 14 | 1087.3 ± 14 | 1085.06 ± 14 | 1562.3 ± 20 | 1580.2 ± 20 | 1595.1 ± 20 | 1609.9 ± 20 | 1617.7 ± 20
m1 = 0.7929 | 1105.83 ± 14 | 1104.22 ± 14 | 1102.11 ± 14 | 1099.92 ± 14 | 1097.59 ± 14 | 1575.8 ± 20 | 1593.7 ± 20 | 1608.6 ± 20 | 1623.4 ± 20 | 1631.2 ± 20
m1 = 0.8916 | 1119.12 ± 14 | 1117.41 ± 14 | 1115.18 ± 14 | 1112.9 ± 14 | 1110.48 ± 14 | 1589.7 ± 20 | 1607.6 ± 20 | 1622.5 ± 20 | 1637.3 ± 20 | 1645.1 ± 20
m1 = 0.9907 | 1132.46 ± 14 | 1130.67 ± 14 | 1128.32 ± 14 | 1125.93 ± 14 | 1123.43 ± 14 | 1603.6 ± 20 | 1621.5 ± 20 | 1636.4 ± 20 | 1651.2 ± 20 | 1659 ± 20

O=P([O-])([O-])O.[Na+].[Na+] [disodium hydrogen phosphate] + O
speed of sound [m/s], Frequency=3 MHz
Details | 288.15 K | 293.15 K | 298.15 K | 303.15 K | 308.15 K
m1 = 0.02076 | 1467.8 ± 20 | 1485.6 ± 20 | 1500.3 ± 20 | 1515 ± 20 | 1522.8 ± 20
m1 = 0.04991 | 1472.7 ± 20 | 1490.4 ± 20 | 1505 ± 20 | 1519.3 ± 20 | 1527.1 ± 20
m1 = 0.07047 | 1476.2 ± 20 | 1493.8 ± 20 | 1508.3 ± 20 | 1522.4 ± 20 | 1530.2 ± 20
m1 = 0.1014 | 1481.5 ± 20 | 1498.9 ± 20 | 1513.2 ± 20 | 1527.1 ± 20 | 1534.9 ± 20
m1 = 0.1983 | 1497.9 ± 20 | 1514.9 ± 20 | 1528.8 ± 20 | 1541.6 ± 20 | 1549.4 ± 20
m1 = 0.2992 | 1515.1 ± 20 | 1531.5 ± 20 | 1544.9 ± 20 | 1556.8 ± 20 | 1564.5 ± 20
m1 = 0.394 | 1531.2 ± 20 | 1547.2 ± 20 | 1560.1 ± 20 | 1571 ± 20 | 1578.8 ± 20
m1 = 0.4957 | 1548.5 ± 20 | 1564 ± 20 | 1576.4 ± 20 | 1586.2 ± 20 | 1594 ± 20
m1 = 0.5971 | 1565.8 ± 20 | 1580.7 ± 20 | 1592.6 ± 20 | 1601.5 ± 20 | 1609.3 ± 20
m1 = 0.6947 | 1582.4 ± 20 | 1596.8 ± 20 | 1608.2 ± 20 | 1616.1 ± 20 | 1623.9 ± 20
m1 = 0.7942 | 1599.3 ± 20 | 1613.3 ± 20 | 1624.2 ± 20 | 1631 ± 20 | 1638.8 ± 20
m1 = 0.876 | 1613.2 ± 20 | 1626.8 ± 20 | 1637.3 ± 20 | 1643.3 ± 20 | 1651.1 ± 20
m1 = 0.976 | 1630.2 ± 20 | 1643.3 ± 20 | 1653.3 ± 20 | 1658.3 ± 20 | 1666.1 ± 20

mass density [kg/m3]
Details | 288.15 K | 293.15 K | 298.15 K | 303.15 K | 308.15 K
m1 = 0.02076 | 1001.71 ± 14 | 1000.78 ± 14 | 999.59 ± 14 | 998.178 ± 14 | 996.536 ± 14
m1 = 0.04991 | 1005.35 ± 14 | 1004.39 ± 14 | 1003.16 ± 14 | 1001.72 ± 14 | 1000.04 ± 14
m1 = 0.07047 | 1007.92 ± 14 | 1006.93 ± 14 | 1005.68 ± 14 | 1004.22 ± 14 | 1002.52 ± 14
m1 = 0.1014 | 1011.78 ± 14 | 1010.76 ± 14 | 1009.47 ± 14 | 1007.97 ± 14 | 1006.24 ± 14
m1 = 0.1983 | 1023.89 ± 14 | 1022.75 ± 14 | 1021.33 ± 14 | 1019.74 ± 14 | 1017.89 ± 14
m1 = 0.2992 | 1036.51 ± 14 | 1035.25 ± 14 | 1033.7 ± 14 | 1032.01 ± 14 | 1030.03 ± 14
m1 = 0.394 | 1048.36 ± 14 | 1046.99 ± 14 | 1045.31 ± 14 | 1043.53 ± 14 | 1041.44 ± 14
m1 = 0.4957 | 1061.07 ± 14 | 1059.58 ± 14 | 1057.77 ± 14 | 1055.88 ± 14 | 1053.67 ± 14
m1 = 0.5971 | 1073.75 ± 14 | 1072.14 ± 14 | 1070.2 ± 14 | 1068.21 ± 14 | 1065.88 ± 14
m1 = 0.6947 | 1085.95 ± 14 | 1084.21 ± 14 | 1082.15 ± 14 | 1080.06 ± 14 | 1077.61 ± 14
m1 = 0.7942 | 1098.39 ± 14 | 1096.54 ± 14 | 1094.34 ± 14 | 1092.15 ± 14 | 1089.58 ± 14
m1 = 0.876 | 1108.62 ± 14 | 1106.66 ± 14 | 1104.36 ± 14 | 1102.1 ± 14 | 1099.43 ± 14
m1 = 0.976 | 1121.11 ± 14 | 1119.04 ± 14 | 1116.61 ± 14 | 1114.24 ± 14 | 1111.45 ± 14
